# From patent US20100196321A1, “COMPOUNDS” (GLAXOSMITHKLINE LLC, priority 2009, published 2010)
# What was measured:
# [1] = test system: HCV mutant replicon A156S; assay: HCV PI Transient Replicon Assay, A156S; format: cell-based; settings: Hepatitis C virus, 72 h, read-out: A156S EC50 values (nM)
# From the text: (§1) A model system for HCV RNA replication is a cell based assay using subgenomic or genomic HCV replicons containing HCV genes and possibly a selectable and/or screenable marker. […] The HCV PI transient replicons assay was derived from two publications ([…]; J Virol 75, 12047, 2001). In this assay, the target cells were “ET Cured cells”, a cell line generated by treating ET replicons cells (RebliKon) with Interferon a for several passages until the HCV genome was cleared. Other modifications to the published protocol included 1) cells were transfected in PBS and 2) were treated for 72 hours with compounds. Data from dose responses was analyzed using BioAssay. EC50 values were generated by plotting percent inhibition against compound concentration. The various HCV mutant replicons were generated by standard molecular biology techniques and confirmed by sequencing.
# [2] = test system: HCV mutant replicon D168V; assay: HCV PI Transient Replicon Assay, D168V; format: cell-based; settings: Hepatitis C virus, 72 h, read-out: D168V EC50 values (nM)
# From the text: as §1
# [3] = test system: HCV mutant replicon R155K; assay: HCV PI Transient Replicon Assay, R155K; format: cell-based; settings: Hepatitis C virus, 72 h, read-out: R155K EC50 values (nM)
# From the text: as §1
# [4] = test system: HCV mutant replicon A156V; assay: HCV PI Transient Replicon Assay, A156V; format: cell-based; settings: Hepatitis C virus, 72 h, read-out: A156V EC50 values (nM)
# From the text: as §1
# [5] = test system: HCV mutant replicon A156T; assay: HCV PI Transient Replicon Assay, A156T; format: cell-based; settings: Hepatitis C virus, 72 h, read-out: A156T EC50 values (nM)
# From the text: as §1
# HCV replicon wt = assay: HCV PI Transient Replicon Assay, wt; format: cell-based; settings: Hepatitis C virus; ET Cured cells, 72 hours
# From the text: as §1
# [6] = test system: HCV mutant replicon D168A; assay: HCV PI Transient Replicon Assay, D168A; format: cell-based; settings: Hepatitis C virus, 72 h, read-out: D168A EC50 values (nM)
# From the text: as §1
# [7] = test system: sub-genomic HCV NS3-NS5B replicon of genotype 1b (ET subline) in Huh-7 cells; assay: Replicon Luciferase Cell Based Assay, genotype 1b; set-up: species or system HCV genotype 1b; settings: Hepatitis C virus, Huh-7, 48 h, read-out: Genotype 1b (IC50 μM)
# Method in brief: (§2)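 5,000 luciferase-replicon cells per well in DMEM with 5% FCS were exposed to 1:3 compound dilutions for 48 h at 37 °C. Firefly luciferase (Steady-Glo) was read, with CellTiter-Glo on duplicate plates for cytotoxicity; background-subtracted signal as % of compound-free control gave IC50.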
# [8] = test system: sub-genomic HCV NS3-NS5B replicon of genotype 1a in Huh-7 cells; assay: Replicon Luciferase Cell Based Assay, genotype 1a; set-up: species or system HCV genotype 1a; settings: Hepatitis C virus, Huh-7, 48 hours
# Method in brief: as §2
# [9] = test system: HCV protease-resistant mutants; assay: HCV PI Transient Replicon Assay, profile over resistant mutants; format: cell-based; settings: e.g. A1566S, A156T, R155K, others
# From the text: as §1
# Compounds of the invention are thought to be active against HCV protease-resistant mutants. […] EC50 values (nM) are shown below in Table 3.
# [10] = biological target: HCV Genotype 1a NS3-4A Protease Domain (Hepatitis C virus genotype 1a, UniProt P27958, T1100M/T1173A); assay: Hepatitis C NS3 Protease FRET Assay (RET-S1); format: biochemical
# Method: Hepatitis C NS3 Protease FRET Assay (RET-S1) Using the HCV Genotype 1a NS3-4A Protease Domain
# Compounds were tested as inhibitors of HCV NS3-4A protease domain in 10 μl reactions which contained 50 mM HEPES pH 7.5, 20% sucrose, 0.05% NP40, 5 mM DTT, 1 μM 4A peptide ([…] that served as a cofactor and activated the enzyme in the assay) (prepared by standard synthetic methods), 5 μM RET S1 substrate (Ac-DED(EDANS)EEAbu ψ[COO] ASK(DABCYL)) and 1 nM NS3 protease domain. The RET S1 substrate (Ac-Asp-Glu-Asp(EDANS)-Glu-Glu-Abu-ψ-[COO]-Ala-Ser-Lys(DABCYL)-NH2) was purchased from Anaspec, Inc. (Taliani et. al, 1996, Anal Biochem). “ψ-[COO]” refers to the location of the ester bond within the molecule
# Cleavage of the substrate, which is based on the natural NS4A/NS4B junction (DEMEECASHL), was monitored by measuring the increase in fluorescence with 355 nm excitation/495 nm emission in a Molecular Devices SpectraMax Gemini plate reader. Compounds were dissolved in DMSO and tested at 10 μM in duplicate or in dose response curves with usually 10 μM top concentration and 3-fold dilutions. The maximum level of DMSO was 5%. The standard compound in the assay was the compound BILN-2061 (Lamarre at al., (2003) Nature, 426, 186-189).
compound,measurement,setting,value
CC(C)(C)OC(=O)N[C@H]1CCCCC/C=C\[C@@H]2C[C@@]2(C(=O)NS(=O)(=O)C2CC2)NC(=O)[C@@H]2C[C@@H](OC(=O)N3Cc4cccc(F)c4C3)CN2C1=O [ITMN-191],EC50,[1],1.64 nM
same,EC50,[2],33.1 nM
same,EC50,[3],109 nM
same,EC50,[4],11.9 nM
same,EC50,[5],6.46 nM
same,EC50,HCV replicon wt,0.07 nM
same,EC50,[6],54.4 nM
COc1ccc2c(O[C@@H]3C[C@H]4C(=O)N[C@]5(C(=O)NS(=O)(=O)C6CC6)C[C@H]5/C=C\CCCCN(C)C(=O)[C@@H]4C3)cc(-c3nc(C(C)C)cs3)nc2c1C [TMC-435350],EC50,[1],0.28 nM
same,EC50,[2],43.7 nM
same,EC50,[3],58.9 nM
same,EC50,[4],36.3 nM
same,EC50,[5],57.5 nM
same,EC50,HCV replicon wt,0.87 nM
same,EC50,[6],161 nM
"COc1ccc2c(O[C@@H]3C[C@H]4C(=O)N[C@]5(C(=O)NS(=O)(=O)C6CC6)C[C@H]5/C=C\CCCCC[C@H](NC(=O)N5CCC(c6ccccc6)CC5)C(=O)N4C3)cc(-c3nc(C(C)C)cs3)nc2c1C [Example 20, (2R,6S,13aS,14aR,16aS)-N-(cyclopropylsulfonyl)-2-{[8-methyl-2-[4-(1-methylethyl)-1,3-thiazol-2-yl]-7-(methyloxy)-4-quinolinyl]oxy}-5,16-dioxo-6-{[(4-phenyl-1-piperidinyl)carbonyl]amino}-1,2,3,6,7,8,9,10,11,13a,14,15,16,16a-tetradecahydrocyclopropa[e]pyrrolo[1,2-a][1,4]diazacyclopentadecine-14a(5H)-carboxamide]",IC50,[7],< 0.01 µM
same,IC50,[8],< 0.01 µM
"COc1ccc2c(O[C@@H]3C[C@H]4C(=O)N[C@]5(C(=O)NS(=O)(=O)C6CC6)C[C@H]5/C=C\CCCCC[C@H](NC(=O)N5CCCCC5)C(=O)N4C3)cc(-c3nc(C4CC4)cs3)nc2c1C [Example 31, (2R,6S,13aS,14aR,16aS,Z)-N-(cyclopropylsulfonyl)-2-(2-(4-cyclopropylthiazol-2-yl)-7-methoxy-8-methylquinolin-4-yloxy)-5,16-dioxo-6-(piperidine-1-carboxamido)-1,2,3,5,6,7,8,9,10,11,13a,14,14a,15,16,16a-hexadecahydrocyclopropa[e]pyrrolo[1,2-a][1,4]diazacyclopentadecine-14a-carboxamide]",IC50,[7],< 0.01 µM
same,IC50,[8],< 0.01 µM
"COc1ccc2c(O[C@@H]3C[C@H]4C(=O)N[C@]5(C(=O)NS(=O)(=O)C6CC6)C[C@H]5/C=C\CCCCC[C@H](NC(=O)N5CCCCC5)C(=O)N4C3)cc(-c3nc(C(C)C)cs3)nc2c1C [Example 16, (2R,6S,13aS,14aR,16aS)-N-(cyclopropylsulfonyl)-2-{[8-methyl-2-[4-(1-methylethyl)-1,3-thiazol-2-yl]-7-(methyloxy)-4-quinolinyl]oxy}-5,16-dioxo-6-[(1-piperidinylcarbonyl)amino]-1,2,3,6,7,8,9,10,11,13a,14,15,16,16a-tetradecahydrocyclopropa[e]pyrrolo[1,2-a][1,4]diazacyclopentadecine-14a(5H)-carboxamide]",IC50,[7],< 0.01 µM
same,EC50,[1],0.07 nM
same,EC50,[2],80.6 nM
same,EC50,[3],6.93 nM
same,profile against resistant mutants compared with other HCV PI inhibitors ITMN-191 and TMC-435350,[9],improved profile
same,EC50,[4],7.17 nM
same,IC50,[10],5 nM
same,EC50,[5],1.95 nM
same,IC50,[8],< 0.01 µM
same,EC50,HCV replicon wt,0.04 nM
same,EC50,[6],24.8 nM
"COc1ccc2c(O[C@@H]3C[C@H]4C(=O)N[C@]5(C(=O)NS(=O)(=O)C6CC6)C[C@H]5/C=C\CCCCC[C@H](NC(=O)N5CCC(CC(N)=O)CC5)C(=O)N4C3)cc(-c3nc(C(C)C)cs3)nc2c1C [Example 23, (2R,6S,13aS,14aR,16aS)-6-({[4-(2-amino-2-oxoethyl)-1-piperidinyl]carbonyl}amino)-N-(cyclopropylsulfonyl)2-{[8-methyl-2-[4-(1-methylethyl)-1,3-thiazol-2-yl]-7-(methyloxy)-4-quinolinyl]oxy}-5,16-dioxo-1,2,3,6,7,8,9,10,11,13a,14,15,16,16a-tetradecahydrocyclopropa[e]pyrrolo[1,2-a][1,4]diazacyclopentadecine-14a(5H)-carboxamide]",IC50,[7],< 0.01 µM
same,IC50,[8],< 0.01 µM
"COc1ccc2c(O[C@@H]3C[C@H]4C(=O)N[C@]5(C(=O)NS(=O)(=O)C6CC6)C[C@H]5/C=C\CCCCC[C@H](NC(=O)N5CCC(C)(C)C5)C(=O)N4C3)cc(-c3nc(C4CC4)cs3)nc2c1C [Example 34, (2R,6S,13a-5,1-aR,16aS,Z)-N-(cyclopropylsulfonyl)-2-(2-(4-cyclopropylthiazol-2-yl)-7-methoxy-8-methylquinolin-4-yloxy)-6-(3,3-dimethylpyrrolidine-1-carboxamido)-5,16-dioxo-1,2,3,5,6,7,8,9,10,11,13a,14,14a,15,16,16a-hexadecahydrocyclopropa[e]pyrrolo[1,2-a][1,4]diazacyclopentadecine-14a-carboxamide]",IC50,[7],< 0.01 µM
same,IC50,[8],< 0.01 µM
"COc1ccc2c(O[C@@H]3C[C@H]4C(=O)N[C@]5(C(=O)NS(=O)(=O)C6CC6)C[C@H]5/C=C\CCCCC[C@H](NC(=O)N5CCC5)C(=O)N4C3)cc(-c3nc(C4CC4)cs3)nc2c1C [Example 32, (2R,65,13aS,14aR,16aS,Z)-6-(azetidine-1-carboxamido)-N-(cyclopropylsulfonyl)-2-(2-(4-cyclopropylthiazol-2-yl)-7-methoxy-8-methylquinolin-4-yloxy)-5,16-dioxo-1,2,3,5,6,7,8,9,10,11,13a,14,14a,15,16,16a-hexadecahydrocyclopropa[e]pyrrolo[1,2-a][1,4]diazacyclopentadecine-14a-carboxamide]",IC50,[7],< 0.01 µM
same,IC50,[8],< 0.01 µM
"COc1ccc2c(O[C@@H]3C[C@H]4C(=O)N[C@]5(C(=O)NS(=O)(=O)C6CC6)C[C@H]5/C=C\CCCCC[C@H](NC(=O)N5CCC(O)CC5)C(=O)N4C3)cc(-c3nc(C(C)C)cs3)nc2c1C [Example 22, (2R,6S,13aS,14aR,16aS)-N-(cyclopropylsulfonyl)-6-{[(4-hydroxy-1-piperidinyl)carbonyl]amino}-2-{[8-methyl-2-[4-(1-methylethyl)-1,3-thiazol-2-yl]-7-(methyloxy)-4-quinolinyl]oxy}-5,16-dioxo-1,2,3,6,7,8,9,10,11,13a,14,15,16 ,16a-tetradecahydrocyclopropa[e]pyrrolo[1,2-a][1,4]diazacyclopentadecine-14a(5H)-carboxamide]",IC50,[7],< 0.01 µM
same,IC50,[8],< 0.01 µM
"CCN(C(=O)N[C@H]1CCCCC/C=C\[C@@H]2C[C@@]2(C(=O)NS(=O)(=O)C2CC2)NC(=O)[C@@H]2C[C@@H](Oc3cc(-c4nc(C5CC5)cs4)nc4c(C)c(OC)ccc34)CN2C1=O)C(C)C [Example 5, (2R,6S,13aS,14aR,16aS)-N-(cyclopropylsulfonyl)-2-{[2-(4-cyclopropyl-1,3-thiazol-2-yl)-8-methyl-7-(methyloxy)-4-quinolinyl]oxy}-6-({[ethyl(1-methylethyl)amino]carbonyl}amino)-5,16-dioxo-1,2,3,6,7,8,9,10,11,13a,14,15,16,16a-tetradecahydrocyclopropa[e]pyrrolo[1,2-a][1,4]diazacyclopentadecine-14a(5H)-carboxamide]",IC50,[7],< 0.01 µM
same,IC50,[8],< 0.01 µM
